Source: ChEMBL document CHEMBL5360558, “Molecular design, synthesis and anticancer activity of new thiopyrano[2,3-d]thiazoles based on 5-hydroxy-1,4-naphthoquinone (juglone)” (Eur J Med Chem, 2023)

Tested on: not listed separately
Experiment: Cytotoxicity against human HCT116-p53-null cells assessed as cell growth inhibition incubated for 72 hrs by MTT assay
Assay type: functional, cell-based
Settings: not given

Structure (SMILES) | IC50
O=C1C2=C(C(=O)c3ccccc31)C(c1ccco1)c1sc(=O)[nH]c1S2 (stereo unspecified) | 6.28 µM
O=C1C2=C(C(=O)c3c(O)cccc31)C(/C=C/c1ccccc1)c1sc(=O)[nH]c1S2 (stereo unspecified) | 43.7 µM
CC1(C)C2=C(Sc3[nH]c(=O)sc31)C(=O)c1cccc(O)c1C2=O | 36.2 µM
O=C1C2=C(C(=O)c3c(O)cccc31)C(c1ccc(Br)cc1)c1sc(=O)[nH]c1S2 (stereo unspecified) | 3.82 µM
COc1ccc(C2C3=C(Sc4[nH]c(=O)sc42)C(=O)c2cccc(O)c2C3=O)cc1 (stereo unspecified) | 3.26 µM
C/C(=C\c1ccccc1)C1C2=C(Sc3[nH]c(=O)sc31)C(=O)c1cccc(O)c1C2=O (stereo unspecified) | 41.7 µM
O=C1C2=C(C(=O)c3c(O)cccc31)C(/C=C/c1ccccc1[N+](=O)[O-])c1sc(=O)[nH]c1S2 (stereo unspecified) | 2.16 µM
CN(C)c1ccc(C2C3=C(Sc4[nH]c(=O)sc42)C(=O)c2cccc(O)c2C3=O)cc1 (stereo unspecified) | 8.83 µM

Tested on: not listed separately
Experiment: Cytotoxicity against mouse NIH3T3 cells assessed as cell growth inhibition incubated for 72 hrs by MTT assay
Assay type: toxicity, cell-based
Settings: not given

Structure (SMILES) | IC50 at 72 h
O=C1C2=C(C(=O)c3ccccc31)C(c1ccco1)c1sc(=O)[nH]c1S2 (stereo unspecified) | 38.9 µM
CC1(C)C2=C(Sc3[nH]c(=O)sc31)C(=O)c1cccc(O)c1C2=O | > 50 µM
O=C1C2=C(C(=O)c3c(O)cccc31)C(c1ccc(Br)cc1)c1sc(=O)[nH]c1S2 (stereo unspecified) | 30.4 µM
COc1ccc(C2C3=C(Sc4[nH]c(=O)sc42)C(=O)c2cccc(O)c2C3=O)cc1 (stereo unspecified) | 6.78 µM
CN(C)c1ccc(C2C3=C(Sc4[nH]c(=O)sc42)C(=O)c2cccc(O)c2C3=O)cc1 (stereo unspecified) | > 50 µM

Tested on: KB 3-1
Experiment: Cytotoxicity against human KB 3-1 cells assessed as cell growth inhibition incubated for 72 hrs by MTT assay
Assay type: functional, cell-based
Settings: KB 3-1, 72 h

Structure (SMILES) | IC50
O=C1C2=C(C(=O)c3ccccc31)C(c1ccco1)c1sc(=O)[nH]c1S2 (stereo unspecified) | 5.54 µM
O=C1C2=C(C(=O)c3c(O)cccc31)C(/C=C/c1ccccc1)c1sc(=O)[nH]c1S2 (stereo unspecified) | 46.4 µM
CC1(C)C2=C(Sc3[nH]c(=O)sc31)C(=O)c1cccc(O)c1C2=O | 23.4 µM
O=C1C2=C(C(=O)c3c(O)cccc31)C(c1ccc(Br)cc1)c1sc(=O)[nH]c1S2 (stereo unspecified) | 2.74 µM
COc1ccc(C2C3=C(Sc4[nH]c(=O)sc42)C(=O)c2cccc(O)c2C3=O)cc1 (stereo unspecified) | 0.87 µM
C/C(=C\c1ccccc1)C1C2=C(Sc3[nH]c(=O)sc31)C(=O)c1cccc(O)c1C2=O (stereo unspecified) | 47.5 µM
O=C1C2=C(C(=O)c3c(O)cccc31)C(/C=C/c1ccccc1[N+](=O)[O-])c1sc(=O)[nH]c1S2 (stereo unspecified) | 6.94 µM
CN(C)c1ccc(C2C3=C(Sc4[nH]c(=O)sc42)C(=O)c2cccc(O)c2C3=O)cc1 (stereo unspecified) | 7.21 µM

Tested on: not listed separately
Experiment: Cytotoxicity against mouse J774.2 cells assessed as cell growth inhibition incubated for 72 hrs by MTT assay
Assay type: toxicity, cell-based
Settings: not given

Structure (SMILES) | IC50 at 72 h
O=C1C2=C(C(=O)c3ccccc31)C(c1ccco1)c1sc(=O)[nH]c1S2 (stereo unspecified) | 6.77 µM
O=C1C2=C(C(=O)c3c(O)cccc31)C(/C=C/c1ccccc1)c1sc(=O)[nH]c1S2 (stereo unspecified) | 7.44 µM
CC1(C)C2=C(Sc3[nH]c(=O)sc31)C(=O)c1cccc(O)c1C2=O | 26.4 µM
O=C1C2=C(C(=O)c3c(O)cccc31)C(c1ccc(Br)cc1)c1sc(=O)[nH]c1S2 (stereo unspecified) | 2.03 µM
COc1ccc(C2C3=C(Sc4[nH]c(=O)sc42)C(=O)c2cccc(O)c2C3=O)cc1 (stereo unspecified) | 2.95 µM
C/C(=C\c1ccccc1)C1C2=C(Sc3[nH]c(=O)sc31)C(=O)c1cccc(O)c1C2=O (stereo unspecified) | 30.8 µM
O=C1C2=C(C(=O)c3c(O)cccc31)C(/C=C/c1ccccc1[N+](=O)[O-])c1sc(=O)[nH]c1S2 (stereo unspecified) | 0.83 µM
CN(C)c1ccc(C2C3=C(Sc4[nH]c(=O)sc42)C(=O)c2cccc(O)c2C3=O)cc1 (stereo unspecified) | 26.9 µM

Tested on: HaCaT
Experiment: (§1) Cytotoxicity against human HaCaT cells assessed as cell growth inhibition incubated for 72 hrs by MTT assay
Assay type: toxicity, cell-based
Settings: hacat, 72 h

Structure (SMILES) | Activity
O=C1C2=C(C(=O)c3ccccc31)C(c1ccco1)c1sc(=O)[nH]c1S2 (stereo unspecified) | Non-Toxic

Tested on: not listed separately
Experiment: as §1
Assay type: toxicity, cell-based
Settings: HaCaT cells

Structure (SMILES) | IC50 at 72 h
CC1(C)C2=C(Sc3[nH]c(=O)sc31)C(=O)c1cccc(O)c1C2=O | > 50 µM
O=C1C2=C(C(=O)c3c(O)cccc31)C(c1ccc(Br)cc1)c1sc(=O)[nH]c1S2 (stereo unspecified) | > 50 µM
COc1ccc(C2C3=C(Sc4[nH]c(=O)sc42)C(=O)c2cccc(O)c2C3=O)cc1 (stereo unspecified) | 40.8 µM
CN(C)c1ccc(C2C3=C(Sc4[nH]c(=O)sc42)C(=O)c2cccc(O)c2C3=O)cc1 (stereo unspecified) | > 50 µM

Tested on: MCF7
Experiment: Cytotoxicity against human MCF7 cells assessed as cell growth inhibition incubated for 72 hrs by MTT assay
Assay type: functional, cell-based
Settings: MCF7, 72 h

Structure (SMILES) | IC50
O=C1C2=C(C(=O)c3ccccc31)C(c1ccco1)c1sc(=O)[nH]c1S2 (stereo unspecified) | 29 µM
O=C1C2=C(C(=O)c3c(O)cccc31)C(/C=C/c1ccccc1)c1sc(=O)[nH]c1S2 (stereo unspecified) | 7.41 µM
CC1(C)C2=C(Sc3[nH]c(=O)sc31)C(=O)c1cccc(O)c1C2=O | 9.48 µM
O=C1C2=C(C(=O)c3c(O)cccc31)C(c1ccc(Br)cc1)c1sc(=O)[nH]c1S2 (stereo unspecified) | 31.2 µM
COc1ccc(C2C3=C(Sc4[nH]c(=O)sc42)C(=O)c2cccc(O)c2C3=O)cc1 (stereo unspecified) | 6.1 µM
C/C(=C\c1ccccc1)C1C2=C(Sc3[nH]c(=O)sc31)C(=O)c1cccc(O)c1C2=O (stereo unspecified) | > 50 µM
O=C1C2=C(C(=O)c3c(O)cccc31)C(/C=C/c1ccccc1[N+](=O)[O-])c1sc(=O)[nH]c1S2 (stereo unspecified) | 0.95 µM
CN(C)c1ccc(C2C3=C(Sc4[nH]c(=O)sc42)C(=O)c2cccc(O)c2C3=O)cc1 (stereo unspecified) | > 50 µM

Tested on: HCT-116
Experiment: Cytotoxicity against human HCT-116 cells assessed as cell growth inhibition incubated for 72 hrs by MTT assay
Assay type: functional, cell-based
Settings: HCT-116, 72 h

Structure (SMILES) | IC50
O=C1C2=C(C(=O)c3ccccc31)C(c1ccco1)c1sc(=O)[nH]c1S2 (stereo unspecified) | 5.44 µM
O=C1C2=C(C(=O)c3c(O)cccc31)C(/C=C/c1ccccc1)c1sc(=O)[nH]c1S2 (stereo unspecified) | 35.6 µM
CC1(C)C2=C(Sc3[nH]c(=O)sc31)C(=O)c1cccc(O)c1C2=O | 12.9 µM
O=C1C2=C(C(=O)c3c(O)cccc31)C(c1ccc(Br)cc1)c1sc(=O)[nH]c1S2 (stereo unspecified) | 4.7 µM
COc1ccc(C2C3=C(Sc4[nH]c(=O)sc42)C(=O)c2cccc(O)c2C3=O)cc1 (stereo unspecified) | 3.19 µM
C/C(=C\c1ccccc1)C1C2=C(Sc3[nH]c(=O)sc31)C(=O)c1cccc(O)c1C2=O (stereo unspecified) | 40.6 µM
O=C1C2=C(C(=O)c3c(O)cccc31)C(/C=C/c1ccccc1[N+](=O)[O-])c1sc(=O)[nH]c1S2 (stereo unspecified) | 0.94 µM
CN(C)c1ccc(C2C3=C(Sc4[nH]c(=O)sc42)C(=O)c2cccc(O)c2C3=O)cc1 (stereo unspecified) | 6.15 µM

Tested on: K562
Experiment: Cytotoxicity against human K562 cells assessed as cell growth inhibition incubated for 72 hrs by MTT assay
Assay type: functional, cell-based
Settings: K562, 72 h

Structure (SMILES) | IC50
O=C1C2=C(C(=O)c3ccccc31)C(c1ccco1)c1sc(=O)[nH]c1S2 (stereo unspecified) | 30.9 µM
O=C1C2=C(C(=O)c3c(O)cccc31)C(/C=C/c1ccccc1)c1sc(=O)[nH]c1S2 (stereo unspecified) | 28.4 µM
CC1(C)C2=C(Sc3[nH]c(=O)sc31)C(=O)c1cccc(O)c1C2=O | 26.8 µM
O=C1C2=C(C(=O)c3c(O)cccc31)C(c1ccc(Br)cc1)c1sc(=O)[nH]c1S2 (stereo unspecified) | 6.31 µM
COc1ccc(C2C3=C(Sc4[nH]c(=O)sc42)C(=O)c2cccc(O)c2C3=O)cc1 (stereo unspecified) | 5.66 µM
C/C(=C\c1ccccc1)C1C2=C(Sc3[nH]c(=O)sc31)C(=O)c1cccc(O)c1C2=O (stereo unspecified) | 33 µM
O=C1C2=C(C(=O)c3c(O)cccc31)C(/C=C/c1ccccc1[N+](=O)[O-])c1sc(=O)[nH]c1S2 (stereo unspecified) | 15.7 µM
CN(C)c1ccc(C2C3=C(Sc4[nH]c(=O)sc42)C(=O)c2cccc(O)c2C3=O)cc1 (stereo unspecified) | 22.9 µM

Tested on: Salmon testes DNA
Experiment: Displacement of methyl green from salmon sperm DNA assessed as DNA intercalation at 10 uM incubated for 24 hrs by fluorescence plate reader method relative to control
Assay type: nucleic-acid assay
Settings: Salmo salar

Structure (SMILES) | Activity
O=C1C2=C(C(=O)c3c(O)cccc31)C(/C=C/c1ccccc1)c1sc(=O)[nH]c1S2 (stereo unspecified) | 11.8%
C/C(=C\c1ccccc1)C1C2=C(Sc3[nH]c(=O)sc31)C(=O)c1cccc(O)c1C2=O (stereo unspecified) | 29.5%
O=C1C2=C(C(=O)c3c(O)cccc31)C(/C=C/c1ccccc1[N+](=O)[O-])c1sc(=O)[nH]c1S2 (stereo unspecified) | 53.2%

The remaining lines, values ahead:

Activity | Structure (SMILES)
11.8% | O=C1C2=C(C(=O)c3ccccc31)C(c1ccco1)c1sc(=O)[nH]c1S2 (stereo unspecified)
42.5% | CC1(C)C2=C(Sc3[nH]c(=O)sc31)C(=O)c1cccc(O)c1C2=O
29.5% | O=C1C2=C(C(=O)c3c(O)cccc31)C(c1ccc(Br)cc1)c1sc(=O)[nH]c1S2 (stereo unspecified)
29.5% | COc1ccc(C2C3=C(Sc4[nH]c(=O)sc42)C(=O)c2cccc(O)c2C3=O)cc1 (stereo unspecified)
55.4% | CN(C)c1ccc(C2C3=C(Sc4[nH]c(=O)sc42)C(=O)c2cccc(O)c2C3=O)cc1 (stereo unspecified)
